Laboratory results from EP3233102B1, “USE OF AN ANTIMICROBIAL PEPTIDE TO INDUCE CELL DEATH IN BREAST CANCER” (Bolkent, Sehnaz, priority 2014, dated 2024).
Where a SMILES comes first, the peptide text is derived from it. Bridges are numbered along the chain shown (N, C = ends). Where no end group is shown, it is not given here.

Tests used:
[1] = tested on: emryonic neurons of rats; conditions: cited from earlier work
[2] = tested on: human glioblastoma cells; conditions: cited from earlier work
[3] = tested on: MCF-7 cells; assay: Lactate dehydrogenase (LDH) release cytotoxicity assay; assay type: cell-based; conditions: 24 hours, FIG. 4
Excerpt: (§1) The lactate dehydrogenase (LDH) release assay was used to measure cytotoxicity. Lactate dehydrogenase (LDH) is a stable cytoplasmic enzyme present in most cells. During damage to or rupture of cell cytoplasmic membranes, LDH is released from cells and into the surrounding cell culture supernatant. Quantitation of LDH in cell culture supernatant was used to measure cellular toxicity levels.
Both MCF-7 and control (normal) cells were detached from 75 cm^2 flasks with trypsin-EDTA and centrifuged. Cells were resuspended in cell culture media and diluted to a concentration of 50 cells/ µl 100 µl of cell suspension was transferred to each well of a 96-well plate. Three wells of cells were used for each concentration of cyclic dodecapeptide. The asay was performed in triplicates. […] The media of the experiment groups was replaced with media containing 50, 100, or 200 µg/ml of cyclic dodecapeptide. After the cells were incubated with cyclic dodecapeptide for 24 hours, the activity of released lactate dehydrogenase was detected following manufacture prototol. 5 µl of lysis solution (2% Triton-X-100) was added to each well. The plate was incubated at 37 °C for 15 minutes. 100 µ ? of freshly prepared reaction mixture containing catalyst (Diaphoresis NAD^+mixture) and dye solution (iodotetrazolium chloride (INT) and sodium lactate) was added to each well. After incubation in dark at room temperature for 30 minutes, the reaction was stopped by adding 50 µl of stopping solution (IN HCl) to each well. Plates were shaken in an orbital shaker for 10 seconds. Spectrophotometric absorbance was measured at 490 nm test wavelength and 690 nm reference wavelength. The results were determined as % cytotoxicity. The average absorbance value of the negative control group (no cyclic dodecapeptide added) was subtracted from each of the experiment groups. […] The control and experiment groups were compared relative to the positive control group, and their cytotoxicities were measured by using the formula below: % Cytotoxicity = ([Experiment−NegativeControl])/([PositiveControl−NegativeControl])∗100 [formula]

[4] = tested on: MDA-MB 231 cells; assay: as above; assay type: cell-based; conditions: 24 hours, FIG. 5
[5] = tested on: control (normal) cells; assay: Lactate dehydrogenase (LDH) release cytotoxicity assay, control group; assay type: cell-based
Excerpt: as §1
Both MCF-7 and control (normal) cells were detached from 75 cm^2 flasks with trypsin-EDTA and centrifuged. Cells were resuspended in cell culture media and diluted to a concentration of 50 cells/ µl 100 µl of cell suspension was transferred to each well of a 96-well plate. Three wells of cells were used for each concentration of cyclic dodecapeptide. The asay was performed in triplicates. […] The media of the experiment groups was replaced with media containing 50, 100, or 200 µg/ml of cyclic dodecapeptide. After the cells were incubated with cyclic dodecapeptide for 24 hours, the activity of released lactate dehydrogenase was detected following manufacture prototol. 5 µl of lysis solution (2% Triton-X-100) was added to each well. The plate was incubated at 37 °C for 15 minutes. 100 µ ? of freshly prepared reaction mixture containing catalyst (Diaphoresis NAD^+mixture) and dye solution (iodotetrazolium chloride (INT) and sodium lactate) was added to each well. After incubation in dark at room temperature for 30 minutes, the reaction was stopped by adding 50 µl of stopping solution (IN HCl) to each well. Plates were shaken in an orbital shaker for 10 seconds. Spectrophotometric absorbance was measured at 490 nm test wavelength and 690 nm reference wavelength. The results were determined as % cytotoxicity. The average absorbance value of the negative control group (no cyclic dodecapeptide added) was subtracted from each of the experiment groups. A positive control group for maximum LDH release was used as 100% cytotoxicity. The control and experiment groups were compared relative to the positive control group, and their cytotoxicities were measured by using the formula below: % Cytotoxicity = ([Experiment−NegativeControl])/([PositiveControl−NegativeControl])∗100 [formula]

For “bactenecin (RLCRIVVIRVCR; disulfide 3-11; UniProt P22226 144-155, looked up)”, the cytotoxicity [1] is given as “strongly cytotoxic” and the cytotoxicity [2] is given as “strongly cytotoxic”.
For `CC[C@H](C)[C@@H]1NC(=O)[C@H](CCCNC(=N)N)NC(=O)[C@@H](NC(=O)[C@H](CC(C)C)NC(=O)[C@@H](N)CCCNC(=N)N)CSSC[C@@H](C(=O)N[C@@H](CCCNC(=N)N)C(=O)O)NC(=O)[C@H](C(C)C)NC(=O)[C@H](CCCNC(=N)N)NC(=O)[C@H]([C@@H](C)CC)NC(=O)[C@H](C(C)C)NC(=O)[C@H](C(C)C)NC1=O` [cyclic dodecapeptide, RLCRIVVIRVCR] (H-RLCRIVVIRVCR-OH; disulfide 3-11), the “release of lactate dehydrogenase, % cytotoxicity, MCF-7 group” value (“release … % cytotoxicity, MCF-7 group” for short) ([3]; 50 µg/ml) was 20.11±8.3%, the “release … % cytotoxicity, MCF-7 group” value ([3]; 100 µg/ml) was 76.22±4.1% and the “release … % cytotoxicity, MCF-7 group” value ([3]; 200 µg/ml) was 61.55+4%. For the same molecule, the “release of lactate dehydrogenase, % cytotoxicity, MDA-MB 231 group” value (from here on “release … % cytotoxicity, MDA-MB 231 group”) ([4]; 50 µg/ml) was 19.1±1.9%, the “release … % cytotoxicity, MDA-MB 231 group” value ([4]; 100 µg/ml) was 17.1±2.2% and the “release … % cytotoxicity, MDA-MB 231 group” value ([4]; 200 µg/ml) was 33.93±9%. The “release of lactate dehydrogenase, % cytotoxicity, control group” value (shortened to “release … % cytotoxicity, control group”) ([5]; 50 µg/ml, FIG. 4 (control group to MCF-7)) was 12.8±1.9%, the “release … % cytotoxicity, control group” value ([5]; 50 µg/ml, FIG. 5 (control group to MDA-MB 231)) was 3.9±0.9% and the “release … % cytotoxicity, control group” value ([5]; 100 µg/ml, FIG. 4 (control group to MCF-7)) was 13.36±1.5%. The “release … % cytotoxicity, control group” value ([5]; 100 µg/ml, FIG. 5 (control group to MDA-MB 231)) was 4.73±1.7%, the “release … % cytotoxicity, control group” value ([5]; 200 µg/ml, FIG. 4 (control group to MCF-7)) was 12.07±1.4% and the “release … % cytotoxicity, control group” value ([5]; 200 µg/ml, FIG. 5 (control group to MDA-MB 231)) was 4.8±1.3%.
